Reference: the NIST ThermoML archive (doi:10.1016/j.fluid.2008.01.010)
± gives the expanded uncertainty stated by the source.

Experiments:
[1] = 298.15 K; 101.33 kPa; Liquid
[2] = refractive index (Na D-line) (dimensionless); conditions: 298.15 K; 101.33 kPa; Liquid; Standard Abbe refractometry

| mass density [1] [kg/m3] | refractive index [2] | Structure (SMILES) |
| --- | --- | --- |
| 1258.5 ± 0.6 | 1.4726 ± 0.0005 | OCC(O)CO [glycerol] |
| 866.12 ± 0.67 | 1.3876 ± 0.0006 | CC(=O)OCC(C)C [2-methylpropyl ethanoate] |

| Structure (SMILES) | mass density [1] [kg/m3] | refractive index [2] |
| --- | --- | --- |
| CC(C)CO [2-methyl-1-propanol] | 797.83 ± 0.48 | 1.3938 ± 0.0005 |
